This is an account of results in patent US9708314B2, “Heterocyclic amide compound” (NISSAN CHEMICAL INDUSTRIES, LTD., priority 2013, dated 2017).

Type in all cases: in vivo
Test [1] relates to Echinochloa oryzacola Vasing. The test can be described thus: Test Example 2: herbicidal activity, application during weed generation in submerged conditions. The following applies: Eighteenth Table; application herbicide amount 320 g/ha. In outline: (§1)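 Paddy-type pot test: flooded soil, 4 cm depth, greenhouse 25–30 °C. Emulsion formulation diluted in water, applied to water surface at 1–2 leaf stage; rate expressed as g/ha. Read-out at 3 wk, 0–5 score.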

For the next test, the system named is Monochoria vaginalis. The test is described as above. The following applies: Eighteenth Table; application herbicide amount 320 g/ha. In outline: as §1
The next test relates to Scirpus juncoides. Described as above. The following applies: Eighteenth Table; application herbicide amount 320 g/ha. In outline:
as §1

The subject of a further test is Abutilon theophrasti. The test can be described thus: Test Example 4: herbicidal effect by application to foliage (diluvial soil, plastic box). Conditions: 320 g/ha; for M (Abutilon theophrasti) herbicidal effect grade: foliage application. In outline:
(§2)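 Read-out is a 0–5 visual grade of herbicidal ratio (5: ≥90%, almost withered; 0: ≤5%) taken three weeks after treatment. Compound was applied as a diluted emulsion to stem and leaf parts of 14-day greenhouse-grown plants (25° C. to 30° C.) at rates expressed as g/ha.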

The subject of a further test is Alopecurus myosuroides. Described as above. Conditions: 320 g/ha; for J (Alopecurus myosuroides) herbicidal effect grade: foliage application. In outline:
as §2

In a further test the test system is Amaranthus retroflexus. Described as above. The following applies: 320 g/ha; for N (Amaranthus retroflexus) herbicidal effect grade: foliage application. The gist of the method: as §2
In another test the test system is Apera spica-venti. The description is as above. The following applies: 320 g/ha; for L (Apera spica-venti.) herbicidal effect grade: foliage application. The gist of the method:
as §2

A further test concerns Avena fatua. The test is described as above. Conditions: 320 g/ha; for I (Avena fatua) herbicidal effect grade: foliage application. In outline:
as §2

Another test deals with Chenopodium album. The test is described as above. Conditions: 320 g/ha; for O (Chenopodium album) herbicidal effect grade: foliage application. In outline:
as §2

Another test concerns Digitaria ciliaris. Described as above. Conditions: 320 g/ha; for F (Digitaria ciliaris) herbicidal effect grade: foliage application. The gist of the method: as §2
For test [2], the system named is Echinochloa crus-galli var. crus-galli. Described as above. Conditions: 320 g/ha; for H (Echinochloa crus-galli var. crus-galli) herbicidal effect grade: foliage application. The gist of the method: as §2
For the next test, the system named is Lolium multiflorum Lam. The test is described as above. The following applies: 320 g/ha; for K (Lolium multiflorum Lam.) herbicidal effect grade: foliage application. In outline:
as §2

Another test relates to Setaria viridis. The description is as above. Conditions: 320 g/ha; for G (Setaria viridis) herbicidal effect grade: foliage application. In outline: as §2
The next test concerns Stellaria media. Described as above. The following applies: 320 g/ha; for P (Stellaria media) herbicidal effect grade: foliage application. The gist of the method:
as §2

`CC(c1nnc2c(C(=O)Nc3nnnn3C)ccc(C(F)(F)F)n12)S(C)(=O)=O` (centres unmarked) [2-054]: the “A (Echinochloa oryzicola Vasing.) herbicidal ratio grade” value in test [1] is recorded as 5 (Herbicidal ratio of 90% or more (almost completely withered)). For the same compound, the “C (Monochoria vaginalis) herbicidal ratio grade” value in the test on Monochoria vaginalis is recorded as 5 (Herbicidal ratio of 90% or more (almost completely withered)). In the test on Scirpus juncoides, the “B (Scirpus juncoides) herbicidal ratio grade” value was 4 (Herbicidal ratio of 70% or more and less than 90%). Besides, in the test on Abutilon theophrasti, the “M (Abutilon theophrasti) herbicidal effect grade” value is recorded as 5 (Herbicidal ratio of 90% or more (almost completely withered)). Further, the “J (Alopecurus myosuroides) herbicidal effect grade” value with Alopecurus myosuroides was 4 (Herbicidal ratio of 70% or more and less than 90%). Besides, in the test on Amaranthus retroflexus, the “N (Amaranthus retroflexus) herbicidal effect grade” value is given as 5 (Herbicidal ratio of 90% or more (almost completely withered)). In addition, the “L (Apera spica-venti.) herbicidal effect grade” value with Apera spica-venti. is recorded as 5 (Herbicidal ratio of 90% or more (almost completely withered)). The “I (Avena fatua) herbicidal effect grade” value in the test on Avena fatua is 5 (Herbicidal ratio of 90% or more (almost completely withered)). In addition, the “O (Chenopodium album) herbicidal effect grade” value in the test with Chenopodium album is reported as 5 (Herbicidal ratio of 90% or more (almost completely withered)). The “F (Digitaria ciliaris) herbicidal effect grade” value in the test on Digitaria ciliaris is 5 (Herbicidal ratio of 90% or more (almost completely withered)). Moreover, the “H (Echinochloa crus-galli var. crus-galli) herbicidal effect grade” value in [2] is 5 (Herbicidal ratio of 90% or more (almost completely withered)). The “K (Lolium multiflorum Lam.) herbicidal effect grade” value with Lolium multiflorum Lam. was 5 (Herbicidal ratio of 90% or more (almost completely withered)). Moreover, in the test on Setaria viridis, the “G (Setaria viridis) herbicidal effect grade” value is listed as 5 (Herbicidal ratio of 90% or more (almost completely withered)). In addition, the “P (Stellaria media) herbicidal effect grade” value in the test on Stellaria media is reported as 5 (Herbicidal ratio of 90% or more (almost completely withered)).

As for `Cn1nnnc1NC(=O)c1ccc(C(F)(F)F)n2c(SCC(F)(F)F)nnc12` [2-087], the “A (Echinochloa oryzicola Vasing.) herbicidal ratio grade” value in test [1] was 4 (Herbicidal ratio of 70% or more and less than 90%). Also, the “C (Monochoria vaginalis) herbicidal ratio grade” value in the test with Monochoria vaginalis is 3 (Herbicidal ratio of 40% or more and less than 70%). In addition, the “B (Scirpus juncoides) herbicidal ratio grade” value with Scirpus juncoides is 4 (Herbicidal ratio of 70% or more and less than 90%). Also, the “herbicidal effect, M (Abutilon theophrasti)” value in the test with Abutilon theophrasti (application to foliage) is recorded as 5 (Herbicidal ratio of 90% or more (almost completely withered)). The “herbicidal effect, J (Alopecurus myosuroides)” value with Alopecurus myosuroides (application to foliage) is 3 (Herbicidal ratio of 40% or more and less than 70%). Also, the “herbicidal effect, N (Amaranthus retroflexus)” value in the test with Amaranthus retroflexus (application to foliage) is 4 (Herbicidal ratio of 70% or more and less than 90%). Moreover, in the test with Apera spica-venti. (application to foliage), the “herbicidal effect, L (Apera spica-venti.)” value is 4 (Herbicidal ratio of 70% or more and less than 90%). Moreover, in the test with Avena fatua (application to foliage), the “herbicidal effect, I (Avena fatua)” value is 4 (Herbicidal ratio of 70% or more and less than 90%). The “herbicidal effect, O (Chenopodium album)” value in the test on Chenopodium album (application to foliage) is given as 5 (Herbicidal ratio of 90% or more (almost completely withered)). For the same compound, the “herbicidal effect, F (Digitaria ciliaris)” value in the test with Digitaria ciliaris (application to foliage) is reported as 5 (Herbicidal ratio of 90% or more (almost completely withered)). Also, the “herbicidal effect, H (Echinochloa crus-galli var. crus-galli)” value in test [2] (application to foliage) is on record as 5 (Herbicidal ratio of 90% or more (almost completely withered)). In the test with Lolium multiflorum Lam. (application to foliage), the “herbicidal effect, K (Lolium multiflorum Lam.)” value is 3 (Herbicidal ratio of 40% or more and less than 70%). The “herbicidal effect, G (Setaria viridis)” value in the test with Setaria viridis (application to foliage) was 4 (Herbicidal ratio of 70% or more and less than 90%). Moreover, the “herbicidal effect, P (Stellaria media)” value with Stellaria media (application to foliage) is 5 (Herbicidal ratio of 90% or more (almost completely withered)).

Regarding `CSCCn1nnnc1NC(=O)c1ccc(C(F)(F)F)n2c(C(C)C)nnc12` [2-048], the “A (Echinochloa oryzicola Vasing.) herbicidal ratio grade” value in test [1] was 3 (Herbicidal ratio of 40% or more and less than 70%). For the same compound, the “C (Monochoria vaginalis) herbicidal ratio grade” value with Monochoria vaginalis was 3 (Herbicidal ratio of 40% or more and less than 70%). Besides, in the test on Scirpus juncoides, the “B (Scirpus juncoides) herbicidal ratio grade” value is 4 (Herbicidal ratio of 70% or more and less than 90%). The “M (Abutilon theophrasti) herbicidal effect grade” value in the test on Abutilon theophrasti was 5 (Herbicidal ratio of 90% or more (almost completely withered)). Also, the “J (Alopecurus myosuroides) herbicidal effect grade” value with Alopecurus myosuroides was 3 (Herbicidal ratio of 40% or more and less than 70%). For the same compound, in the test with Amaranthus retroflexus, the “N (Amaranthus retroflexus) herbicidal effect grade” value is listed as 5 (Herbicidal ratio of 90% or more (almost completely withered)). Also, the “L (Apera spica-venti.) herbicidal effect grade” value with Apera spica-venti. was 4 (Herbicidal ratio of 70% or more and less than 90%). In addition, in the test with Avena fatua, the “I (Avena fatua) herbicidal effect grade” value was 4 (Herbicidal ratio of 70% or more and less than 90%). The “O (Chenopodium album) herbicidal effect grade” value with Chenopodium album was 5 (Herbicidal ratio of 90% or more (almost completely withered)). Further, the “F (Digitaria ciliaris) herbicidal effect grade” value in the test on Digitaria ciliaris is reported as 5 (Herbicidal ratio of 90% or more (almost completely withered)). Moreover, the “H (Echinochloa crus-galli var. crus-galli) herbicidal effect grade” value in test [2] is listed as 5 (Herbicidal ratio of 90% or more (almost completely withered)). The “K (Lolium multiflorum Lam.) herbicidal effect grade” value in the test with Lolium multiflorum Lam. is 4 (Herbicidal ratio of 70% or more and less than 90%). Also, the “G (Setaria viridis) herbicidal effect grade” value with Setaria viridis is 5 (Herbicidal ratio of 90% or more (almost completely withered)). For the same compound, the “P (Stellaria media) herbicidal effect grade” value in the test on Stellaria media is 4 (Herbicidal ratio of 70% or more and less than 90%).

Consider `Cn1nnnc1NC(=O)c1ccc(C(F)(F)F)n2c(Nc3ccccc3)nnc12` [2-056], for which the “A (Echinochloa oryzicola Vasing.) herbicidal ratio grade” value in [1] was 3 (Herbicidal ratio of 40% or more and less than 70%). Also, in the test with Monochoria vaginalis, the “C (Monochoria vaginalis) herbicidal ratio grade” value was 3 (Herbicidal ratio of 40% or more and less than 70%). Further, the “B (Scirpus juncoides) herbicidal ratio grade” value in the test on Scirpus juncoides is 3 (Herbicidal ratio of 40% or more and less than 70%). The “M (Abutilon theophrasti) herbicidal effect grade” value in the test with Abutilon theophrasti is 4 (Herbicidal ratio of 70% or more and less than 90%). Besides, in the test on Alopecurus myosuroides, the “J (Alopecurus myosuroides) herbicidal effect grade” value was 1 (Herbicidal ratio of 5% or more and less than 20%). Further, in the test with Amaranthus retroflexus, the “N (Amaranthus retroflexus) herbicidal effect grade” value is 4 (Herbicidal ratio of 70% or more and less than 90%). In the test on Apera spica-venti., the “L (Apera spica-venti.) herbicidal effect grade” value is 1 (Herbicidal ratio of 5% or more and less than 20%). Further, the “I (Avena fatua) herbicidal effect grade” value in the test with Avena fatua is 1 (Herbicidal ratio of 5% or more and less than 20%). In addition, the “O (Chenopodium album) herbicidal effect grade” value in the test with Chenopodium album was 5 (Herbicidal ratio of 90% or more (almost completely withered)). In the test with Digitaria ciliaris, the “F (Digitaria ciliaris) herbicidal effect grade” value was 5 (Herbicidal ratio of 90% or more (almost completely withered)). In addition, in test [2], the “H (Echinochloa crus-galli var. crus-galli) herbicidal effect grade” value was 4 (Herbicidal ratio of 70% or more and less than 90%). The “K (Lolium multiflorum Lam.) herbicidal effect grade” value in the test on Lolium multiflorum Lam. is 1 (Herbicidal ratio of 5% or more and less than 20%). Also, the “G (Setaria viridis) herbicidal effect grade” value in the test on Setaria viridis is 3 (Herbicidal ratio of 40% or more and less than 70%). Besides, in the test on Stellaria media, the “P (Stellaria media) herbicidal effect grade” value is 5 (Herbicidal ratio of 90% or more (almost completely withered)).
